Experimental data from the supplement of paper PMC10307832.

Experiments:
Experiment in all cases: relative viability (nuclei count vs DMSO), 5 days (fraction); higher = more cells survive
CAL-12T = test system: CAL-12T
Procedure, shortened: (§1)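 Medians of duplicate plates are given as relative viability. That measure is the nuclei count in treated wells divided by the count in vehicle wells. Counts were taken on 4× images of lung cancer cell lines in 1536-well plates, 5 days after pin-tool dosing the day after seeding with one drug alone or a fixed anchor-drug dose plus five library-drug doses (not always all listed) in √10 steps.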

COR-L 105 = test system: COR-L 105
Procedure, shortened: as §1

H3255 = test system: H3255
Procedure, shortened: as §1

HARA = test system: HARA
Procedure, shortened: as §1

HCC-15 = test system: HCC-15
Procedure, shortened: as §1

HCC-366 = test system: HCC-366
Procedure, shortened: as §1

LC-2-ad = test system: LC-2-ad
Procedure, shortened: as §1

LU99A = test system: LU99A
Procedure, shortened: as §1

NCI-H1395 = test system: NCI-H1395
Procedure, shortened: as §1

NCI-H1666 = test system: NCI-H1666
Procedure, shortened: as §1

NCI-H1734 = test system: NCI-H1734
Procedure, shortened: as §1

NCI-H1944 = test system: NCI-H1944
Procedure, shortened: as §1

NCI-H1975 = test system: NCI-H1975
Procedure, shortened: as §1

NCI-H1993 = test system: NCI-H1993
Procedure, shortened: as §1

NCI-H2228 = test system: NCI-H2228
Procedure, shortened: as §1

NCI-H3122 = test system: NCI-H3122
Procedure, shortened: as §1

NCI-H520 = test system: NCI-H520
Procedure, shortened: as §1

NCI-H647 = test system: NCI-H647
Procedure, shortened: as §1

NCI-H661 = test system: NCI-H661
Procedure, shortened: as §1

NCI-H838 = test system: NCI-H838
Procedure, shortened: as §1

PC-14 = test system: PC-14
Procedure, shortened: as §1

PC-3 [JPC-3] = test system: PC-3 [JPC-3]
Procedure, shortened: as §1

SK-LU-1 = test system: SK-LU-1
Procedure, shortened: as §1

## O=C(O)CCCCC(CCSCc1ccccc1)SCc1ccccc1 (centres undefined) [CPI-613] + CC(=O)Nc1cccc(-n2c(=O)n(C3CC3)c(=O)c3c(Nc4ccc(I)cc4F)n(C)c(=O)c(C)c32)c1 [Trametinib] (partner 0.02 µM)
CAL-12T; first compound 5 µM
  relative viability: 0.286
CAL-12T; first compound 15.81 µM
  relative viability: 0.309
CAL-12T; first compound 50 µM
  relative viability: 0.325
CAL-12T; first compound 158.11 µM
  relative viability: 0.0954
CAL-12T; first compound 500 µM
  relative viability: 0.038
COR-L 105; first compound 5 µM
  relative viability: 0.459
COR-L 105; first compound 15.81 µM
  relative viability: 0.437
COR-L 105; first compound 50 µM
  relative viability: 0.479
COR-L 105; first compound 158.11 µM
  relative viability: 0.355
COR-L 105; first compound 500 µM
  relative viability: 0.225
H3255; first compound 5 µM
  relative viability: 0.61
H3255; first compound 15.81 µM
  relative viability: 0.6
H3255; first compound 50 µM
  relative viability: 0.654
H3255; first compound 158.11 µM
  relative viability: 0.62
H3255; first compound 500 µM
  relative viability: 0.598
HARA; first compound 5 µM
  relative viability: 0.805
HARA; first compound 15.81 µM
  relative viability: 0.57
HARA; first compound 50 µM
  relative viability: 0.849
HARA; first compound 158.11 µM
  relative viability: 0.362
HARA; first compound 500 µM
  relative viability: 0.0485
HCC-15; first compound 5 µM
  relative viability: 0.387
HCC-15; first compound 15.81 µM
  relative viability: 0.363
HCC-15; first compound 50 µM
  relative viability: 0.363
HCC-15; first compound 158.11 µM
  relative viability: 0.167
HCC-15; first compound 500 µM
  relative viability: 0.0261
HCC-366; first compound 5 µM
  relative viability: 0.367
HCC-366; first compound 15.81 µM
  relative viability: 0.321
HCC-366; first compound 50 µM
  relative viability: 0.29
HCC-366; first compound 158.11 µM
  relative viability: 0.12
HCC-366; first compound 500 µM
  relative viability: 0.0064
LC-2-ad; first compound 5 µM
  relative viability: 0.857
LC-2-ad; first compound 15.81 µM
  relative viability: 0.899
LC-2-ad; first compound 50 µM
  relative viability: 0.911
LC-2-ad; first compound 158.11 µM
  relative viability: 0.695
LC-2-ad; first compound 500 µM
  relative viability: 0.0212
LU99A; first compound 5 µM
  relative viability: 0.51
LU99A; first compound 15.81 µM
  relative viability: 0.524
LU99A; first compound 50 µM
  relative viability: 0.461
LU99A; first compound 158.11 µM
  relative viability: 0.338
LU99A; first compound 500 µM
  relative viability: 0.357
NCI-H1395; first compound 5 µM
  relative viability: 0.901
NCI-H1395; first compound 15.81 µM
  relative viability: 1.05
NCI-H1395; first compound 50 µM
  relative viability: 0.928
NCI-H1395; first compound 158.11 µM
  relative viability: 1.04
NCI-H1395; first compound 500 µM
  relative viability: 0.917
NCI-H1666; first compound 5 µM
  relative viability: 0.888
NCI-H1666; first compound 15.81 µM
  relative viability: 0.821
NCI-H1666; first compound 50 µM
  relative viability: 0.796
NCI-H1666; first compound 158.11 µM
  relative viability: 0.488
NCI-H1666; first compound 500 µM
  relative viability: 0.394
NCI-H1734; first compound 5 µM
  relative viability: 0.615
NCI-H1734; first compound 15.81 µM
  relative viability: 0.631
NCI-H1734; first compound 50 µM
  relative viability: 0.593
NCI-H1734; first compound 158.11 µM
  relative viability: 0.482
NCI-H1734; first compound 500 µM
  relative viability: 0.101
NCI-H1944; first compound 5 µM
  relative viability: 0.427
NCI-H1944; first compound 15.81 µM
  relative viability: 0.398
NCI-H1944; first compound 50 µM
  relative viability: 0.412
NCI-H1944; first compound 158.11 µM
  relative viability: 0.259
NCI-H1944; first compound 500 µM
  relative viability: 0.28
NCI-H1975; first compound 5 µM
  relative viability: 0.395
NCI-H1975; first compound 15.81 µM
  relative viability: 0.355
NCI-H1975; first compound 50 µM
  relative viability: 0.272
NCI-H1975; first compound 158.11 µM
  relative viability: 0.348
NCI-H1975; first compound 500 µM
  relative viability: 0.0712
NCI-H1993; first compound 5 µM
  relative viability: 0.466
NCI-H1993; first compound 15.81 µM
  relative viability: 0.456
NCI-H1993; first compound 50 µM
  relative viability: 0.528
NCI-H1993; first compound 158.11 µM
  relative viability: 0.51
NCI-H1993; first compound 500 µM
  relative viability: 0.291
NCI-H2228; first compound 5 µM
  relative viability: 0.549
NCI-H2228; first compound 15.81 µM
  relative viability: 0.393
NCI-H2228; first compound 50 µM
  relative viability: 0.343
NCI-H2228; first compound 158.11 µM
  relative viability: 0.452
NCI-H2228; first compound 500 µM
  relative viability: 0.052
NCI-H3122; first compound 5 µM
  relative viability: 0.232
NCI-H3122; first compound 15.81 µM
  relative viability: 0.25
NCI-H3122; first compound 50 µM
  relative viability: 0.295
NCI-H3122; first compound 158.11 µM
  relative viability: 0.215
NCI-H3122; first compound 500 µM
  relative viability: 0.227
NCI-H520; first compound 5 µM
  relative viability: 0.691
NCI-H520; first compound 15.81 µM
  relative viability: 0.708
NCI-H520; first compound 50 µM
  relative viability: 0.552
NCI-H520; first compound 158.11 µM
  relative viability: 0.16
NCI-H520; first compound 500 µM
  relative viability: 0.0957
NCI-H647; first compound 5 µM
  relative viability: 0.378
NCI-H647; first compound 15.81 µM
  relative viability: 0.388
NCI-H647; first compound 50 µM
  relative viability: 0.38
NCI-H647; first compound 158.11 µM
  relative viability: 0.0824
NCI-H647; first compound 500 µM
  relative viability: 0.0504
NCI-H661; first compound 5 µM
  relative viability: 0.528
NCI-H661; first compound 15.81 µM
  relative viability: 0.532
NCI-H661; first compound 50 µM
  relative viability: 0.541
NCI-H661; first compound 158.11 µM
  relative viability: 0.263
NCI-H661; first compound 500 µM
  relative viability: 0.133
NCI-H838; first compound 5 µM
  relative viability: 0.514
NCI-H838; first compound 15.81 µM
  relative viability: 0.461
NCI-H838; first compound 50 µM
  relative viability: 0.468
NCI-H838; first compound 158.11 µM
  relative viability: 0.232
NCI-H838; first compound 500 µM
  relative viability: 0.065
PC-14; first compound 5 µM
  relative viability: 0.651
PC-14; first compound 15.81 µM
  relative viability: 0.549
PC-14; first compound 50 µM
  relative viability: 0.72
PC-14; first compound 158.11 µM
  relative viability: 0.108
PC-14; first compound 500 µM
  relative viability: 0.0098
PC-3 [JPC-3]; first compound 5 µM
  relative viability: 0.659
PC-3 [JPC-3]; first compound 50 µM
  relative viability: 0.712
PC-3 [JPC-3]; first compound 158.11 µM
  relative viability: 0.321
PC-3 [JPC-3]; first compound 500 µM
  relative viability: 0.433
SK-LU-1; first compound 5 µM
  relative viability: 0.452
SK-LU-1; first compound 15.81 µM
  relative viability: 0.477
SK-LU-1; first compound 50 µM
  relative viability: 0.365
SK-LU-1; first compound 158.11 µM
  relative viability: 0.366
SK-LU-1; first compound 500 µM
  relative viability: 0.129
